Measurements as given in patent US8795973B2, “Methods for identifying inhibitors of mannan-binding lectin associated serine protease (MASP) proteins and uses thereof” (University of Leceister, priority 2010, dated 2014).
Several values for one entry are separate records, joined by “and”; a condition that tells them apart may be missing. Equal entries are not always repeated. Blank lines part the entries; values can stand above or below the molecule they belong to.

Assays:
[1] = target: T1, MASP-1 CUB2 (Rattus norvegicus, UniProt Q8CHN8); experiment: Isothermal titration calorimetry of Ca2+ binding to MASP-1 CUB2; conditions: ITC, two independent experiments
T1 construct: MASP-1 CUB2 (residues E165-A277 of the mature polypeptide, isoform 1); made in house; host or cells: E. coli BL21 DE3
T1 sequence (Q8CHN8 189-301): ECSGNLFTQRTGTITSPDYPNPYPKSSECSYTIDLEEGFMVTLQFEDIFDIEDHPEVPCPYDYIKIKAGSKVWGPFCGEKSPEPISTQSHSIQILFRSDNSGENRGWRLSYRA
Description: The CUB2 domain was made calcium free by EDTA treatment and dialyzed extensively into 50 mM Tris/HCl, pH 7.4 containing 150 mM NaCl. Freshly prepared 2 mM CaCl2 in the same batch of assay buffer was titrated into CUB2 domain (114 μM) in the cell of a VP-isothermal titration calorimeter (Microcal) equilibrated at 25° C. The data were fitted to a 1:1 binding model using the Origin software supplied by the manufacturer, after subtraction of the heats of dilution of the calcium. Because binding was weak, the experiment was carried out under low ‘c-value’ conditions (where the concentration of the protein in the cell is lower than that of the KD).

[2] = target: T2, MASP-1 binding to immobilized MBL (Rattus norvegicus, UniProt Q8CHN8, H450D/I451D/K449D/R453K/S452D); experiment: Surface plasmon resonance inhibition of MASP-1 binding to immobilized MBL; conditions: for Inhibition of MBL/MASP-1 binding (in words): full-length MBL/MASP-1 complexes
T2 construct: made in house
T2 sequence (Q8CHN8 25-704 K449D/H450D/I451D/S452D/R453K): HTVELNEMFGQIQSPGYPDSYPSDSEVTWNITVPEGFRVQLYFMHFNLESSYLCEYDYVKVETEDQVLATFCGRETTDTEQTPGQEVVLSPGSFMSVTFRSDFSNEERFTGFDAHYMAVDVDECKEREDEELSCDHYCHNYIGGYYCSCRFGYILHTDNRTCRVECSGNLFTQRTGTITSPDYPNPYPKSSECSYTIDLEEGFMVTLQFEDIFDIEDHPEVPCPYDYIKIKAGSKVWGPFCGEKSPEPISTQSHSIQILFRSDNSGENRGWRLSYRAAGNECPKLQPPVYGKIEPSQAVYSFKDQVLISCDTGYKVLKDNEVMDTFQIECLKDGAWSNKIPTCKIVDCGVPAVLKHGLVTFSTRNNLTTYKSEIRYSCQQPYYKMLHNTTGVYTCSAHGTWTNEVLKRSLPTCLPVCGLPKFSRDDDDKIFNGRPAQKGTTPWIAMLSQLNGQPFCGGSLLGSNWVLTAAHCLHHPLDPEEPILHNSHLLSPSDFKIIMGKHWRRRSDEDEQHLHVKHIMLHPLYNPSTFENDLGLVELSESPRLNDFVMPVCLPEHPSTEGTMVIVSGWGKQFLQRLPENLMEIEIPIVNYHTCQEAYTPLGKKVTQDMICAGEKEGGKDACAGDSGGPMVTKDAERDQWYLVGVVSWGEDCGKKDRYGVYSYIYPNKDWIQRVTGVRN
Description: Rat MBL-A (referred to as MBL throughout) was produced as described previously. (Wallis and Drickamer, supra (1999)). MASP-1ent (referred to as MASP-1) is a modified form of rat MASP-1 in which the zymogen cleavage site has been replaced by an enterokinase recognition site (DDDDK; SEQ ID NO: 4). […] (Chen and Wallis (2004)). […] (Persikov et al., J Biol Chem 280:19343-19349 (2005)).
MBL (0.025 mg/ml) was immobilized onto the surface of a GLM sensor chip (˜10,000 response units) at pH 4.5, using amine-coupling chemistry. Binding to CUB2 was measured on a ProteOn® XPR36 (BioRad) in 10 mM Tris/HCl pH 7.4, containing 140 mM NaCl, 5 mM Ca^2+ and 0.005% Tween-20 at 25° C., at a flow rate of 25 μL/min. For inhibition assays, MBL was immobilized on to a CM-5 sensor chip (14,000 response units) and binding was measured on a Biacore® 2000 (GE Healthcare) in 20 mM Tris/HCl pH 7.4, containing 140 mM NaCl, 5 mM Ca^2+, and 0.005% SP-20. MASP-1 (100 nM) was premixed with inhibitor and flowed over the chip surface at a rate of 5 μL/min at 25° C. Changes in response units caused by differences in sample composition were subtracted from all data. To account for changes in ionic strength of the buffer due to the inhibitor, binding was measured in the presence of equivalent concentrations of NaCl.

[3] = tested on: lectin pathway complement activation; experiment: Lectin pathway specific complement activation (Wieslab MBL pathway kit, membrane-attack complex deposition on mannan-coated plates); format: biochemical; conditions: three independent experiments, read-out: IC50, inhibition of lectin pathway complement activation
Description: Lectin pathway specific complement activation was measured using the Wieslab® MBL pathway kit (Euro-Diagnostica), which measures deposition of the membrane attack complexes on a mannan-coated plate. The lectin pathway is functional, even under conditions of high ionic strength (1M NaCl). (Petersen et al., J Immunol Methods 257:107-116 (2001)).

[4] = target: MBL (Rattus norvegicus, UniProt P19999); conditions: read-out: Affinity of full-size MASP-1 binding to MBL; cited from earlier work

Kd ([1]; single Ca2+ site model, 25° C.): 0.49 mM and 0.5 mM | ΔH of Ca2+ binding to MASP-1 CUB2 [1]: -1.1 ± 0.14 kcal/mol
Molecule: [Ca+2].[Cl-].[Cl-] [Ca^2+, CaCl2]

Molecule: CN [methylamine]
Inhibition of MBL/MASP-1 binding (in words) [2]: inhibitors

Molecule: [Cl-].[Na+] [NaCl]
Binding of MASP-1 to MBL, % of maximal ([2]; ionic strength control, all NaCl concentrations tested (up to 550 mM)): > 60%

Molecule: CCN [ethylamine]
Inhibition of MBL/MASP-1 binding (in words) [2]: inhibitors

IC50 ([2]; SPR, MASP-1 100 nM premixed with inhibitor, 25° C., three independent experiments): 49 mM and ~50 mM | IC50 [3]: 25 mM and ~25 mM
Molecule: NCCCC[C@H](N)C(=O)O [lysine]

B1: MASP-1: full-size MBL-associated serine protease 1 (protein, UniProt Q8CHN8 1-704, looked up)
chain: MRFLSFRRLLLYHVLCLTLTEVSAHTVELNEMFGQIQSPGYPDSYPSDSEVTWNITVPEGFRVQLYFMHFNLESSYLCEYDYVKVETEDQVLATFCGRETTDTEQTPGQEVVLSPGSFMSVTFRSDFSNEERFTGFDAHYMAVDVDECKEREDEELSCDHYCHNYIGGYYCSCRFGYILHTDNRTCRVECSGNLFTQRTGTITSPDYPNPYPKSSECSYTIDLEEGFMVTLQFEDIFDIEDHPEVPCPYDYIKIKAGSKVWGPFCGEKSPEPISTQSHSIQILFRSDNSGENRGWRLSYRAAGNECPKLQPPVYGKIEPSQAVYSFKDQVLISCDTGYKVLKDNEVMDTFQIECLKDGAWSNKIPTCKIVDCGVPAVLKHGLVTFSTRNNLTTYKSEIRYSCQQPYYKMLHNTTGVYTCSAHGTWTNEVLKRSLPTCLPVCGLPKFSRKHISRIFNGRPAQKGTTPWIAMLSQLNGQPFCGGSLLGSNWVLTAAHCLHHPLDPEEPILHNSHLLSPSDFKIIMGKHWRRRSDEDEQHLHVKHIMLHPLYNPSTFENDLGLVELSESPRLNDFVMPVCLPEHPSTEGTMVIVSGWGKQFLQRLPENLMEIEIPIVNYHTCQEAYTPLGKKVTQDMICAGEKEGGKDACAGDSGGPMVTKDAERDQWYLVGVVSWGEDCGKKDRYGVYSYIYPNKDWIQRVTGVRN
modifications: full-length
Kd [4]: 10 to 100 nM
